Nine molecules from PubChem BioAssay AID1259407 (Chemical Carcinogenesis Research Information System (CCRIS), 2018) can be followed below.

Active and inactive are the calls of the source. How the calls were made is not given here.

The data set has as its system CCRIS mutagenicity, Ames/micronucleus/aberration tests. Description: CCRIS mutagenicity studies.
Where [1] appears, read: Test System: AMES SALMONELLA TYPHIMURIUM, Strain/Indicator: TA98, Metabolic Activation: NONE, Method: PREINCUBATION
Where [2] appears, read: Test System: AMES SALMONELLA TYPHIMURIUM, Strain/Indicator: TA100, Metabolic Activation: NONE, Method: PREINCUBATION
[3] abbreviates: Test System: AMES SALMONELLA TYPHIMURIUM, Strain/Indicator: TA98, Metabolic Activation: NONE, Method: STANDARD PLATE.
Where [4] appears, read: Test System: AMES SALMONELLA TYPHIMURIUM, Strain/Indicator: TA100, Metabolic Activation: NONE, Method: STANDARD PLATE.

Consider `Cc1c2c3c(cccc3c3ccccc13)-c1ccccc1-2`, for which the mutagenic call (Test System: AMES SALMONELLA TYPHIMURIUM, Strain/Indicator: TA100, Metabolic Activation: RAT, LIVER, S-9, AROCLOR 1254) was “active; positive”.

In the case of `Cc1cc2nc3ccc(C)c(N)c3nc2cc1N`, the mutagenic call is “inactive; negative” under setting [1] and “active; positive” (Test System: AMES SALMONELLA TYPHIMURIUM, Strain/Indicator: TA98, Metabolic Activation: RAT, LIVER, S-9, PCB, Method: PREINCUBATION).

On to `O=C(O)/C=C/c1ccc(Cl)cc1`, for which the mutagenic call by setting is: under setting [2], “inactive; negative”; (Test System: AMES SALMONELLA TYPHIMURIUM, Strain/Indicator: TA100, Metabolic Activation: RAT, LIVER, S-9, AROCLOR 1254, Method: PREINCUBATION) “inactive; negative”.

For `COc1ccc(/C=C/c2ccc(N)cc2)cc1`, the mutagenic call by setting is: (Test System: AMES SALMONELLA TYPHIMURIUM, Strain/Indicator: TA98(1,8-DNP6), Metabolic Activation: NONE, Method: STANDARD PLATE) “inactive; negative”; (Test System: AMES SALMONELLA TYPHIMURIUM, Strain/Indicator: TA98(1,8-DNP6), Metabolic Activation: S-9, Method: STANDARD PLATE) “inactive; negative”; under setting [3], “inactive; negative”; (Test System: AMES SALMONELLA TYPHIMURIUM, Strain/Indicator: TA98, Metabolic Activation: S-9, Method: STANDARD PLATE) “active; positive”; under setting [4], “inactive; negative”; (Test System: AMES SALMONELLA TYPHIMURIUM, Strain/Indicator: TA100, Metabolic Activation: S-9, Method: STANDARD PLATE) “active; positive”.

For `C=CC`, the mutagenic call was “inactive; negative” (Test System: MOUSE LYMPHOMA, Strain/Indicator: L5178Y (TK+/TK-), Metabolic Activation: NONE, Method: SUSPENSION/PLATE) and “inactive; negative” (Test System: MOUSE LYMPHOMA, Strain/Indicator: L5178Y (TK+/TK-), Metabolic Activation: RAT, LIVER, S-9, Method: SUSPENSION/PLATE).

Turning to `CC(N)[13C](=O)O` (centres undefined), the mutagenic call by setting is: (Test System: AMES SALMONELLA TYPHIMURIUM, Strain/Indicator: TA97, Metabolic Activation: NONE, Method: PREINCUBATION) “inactive; negative”; (Test System: AMES SALMONELLA TYPHIMURIUM, Strain/Indicator: TA97, Metabolic Activation: RAT, LIVER, S-9, AROCLOR 1254, Method: PREINCUBATION) “inactive; negative”; (Test System: AMES SALMONELLA TYPHIMURIUM, Strain/Indicator: TA102, Metabolic Activation: NONE, Method: PREINCUBATION) “inactive; negative”; (Test System: AMES SALMONELLA TYPHIMURIUM, Strain/Indicator: TA102, Metabolic Activation: RAT, LIVER, S-9, AROCLOR 1254, Method: PREINCUBATION) “inactive; negative”.

For `Nc1ccc(NC(=O)c2ccc(N)cc2)cc1`, the mutagenic call is “inactive; negative” under setting [1]; “active; positive” (Test System: AMES SALMONELLA TYPHIMURIUM, Strain/Indicator: TA98, Metabolic Activation: RAT LIVER S-9, PHENOBARBITAL AND BETA-NAPHTHOFLAVONE, Method: PREINCUBATION); “inactive; negative” under setting [2]; “inactive; negative” (Test System: AMES SALMONELLA TYPHIMURIUM, Strain/Indicator: TA100, Metabolic Activation: RAT LIVER S-9, PHENOBARBITAL AND BETA-NAPHTHOFLAVONE, Method: PREINCUBATION); “inactive; negative” (Test System: AMES SALMONELLA TYPHIMURIUM, Strain/Indicator: TA1535, Metabolic Activation: NONE, Method: PREINCUBATION); “inactive; negative” (Test System: AMES SALMONELLA TYPHIMURIUM, Strain/Indicator: TA1535, Metabolic Activation: RAT LIVER S-9, PHENOBARBITAL AND BETA-NAPHTHOFLAVONE, Method: PREINCUBATION). In addition, the mutagenic call by setting is: (Test System: AMES SALMONELLA TYPHIMURIUM, Strain/Indicator: TA1537, Metabolic Activation: RAT LIVER S-9, PHENOBARBITAL AND BETA-NAPHTHOFLAVONE, Method: PREINCUBATION) “active; positive”; (Test System: E.COLI, Strain/Indicator: WP2UVRA, Metabolic Activation: NONE, Method: PREINCUBATION) “inactive; negative”; (Test System: E.COLI, Strain/Indicator: WP2UVRA, Metabolic Activation: RAT LIVER S-9, PHENOBARBITAL AND BETA-NAPHTHOFLAVONE, Method: PREINCUBATION) “inactive; negative”.

Take `CCCCCCCCCCCCCCCc1cccc(O)c1C(=O)O`: the mutagenic call (End Point: In vivo micronucleus, Test System: Peripheral blood erythrocytes, Species: Mouse, Strain/Sex: CD-1, Route: Oral) is “inactive; negative”.

With `C=C(C)OC(C)=O`, the mutagenic call reads like this: (Test System: AMES SALMONELLA TYPHIMURIUM, Strain/Indicator: TA98, Metabolic Activation: HAMSTER, LIVER, S-9, AROCLOR 1254, Method: STANDARD PLATE) “inactive; negative”; under setting [3], “inactive; negative”; (Test System: AMES SALMONELLA TYPHIMURIUM, Strain/Indicator: TA98, Metabolic Activation: RAT, LIVER, S-9, AROCLOR 1254, Method: STANDARD PLATE) “inactive; negative”; (Test System: AMES SALMONELLA TYPHIMURIUM, Strain/Indicator: TA100, Metabolic Activation: HAMSTER, LIVER, S-9, AROCLOR 1254, Method: STANDARD PLATE) “inactive; negative”; under setting [4], “inactive; negative”; (Test System: AMES SALMONELLA TYPHIMURIUM, Strain/Indicator: TA100, Metabolic Activation: RAT, LIVER, S-9, AROCLOR 1254, Method: STANDARD PLATE) “inactive; negative”. The mutagenic call reads like this: (Test System: AMES SALMONELLA TYPHIMURIUM, Strain/Indicator: TA1535, Metabolic Activation: HAMSTER, LIVER, S-9, AROCLOR 1254, Method: STANDARD PLATE) “inactive; negative”; (Test System: AMES SALMONELLA TYPHIMURIUM, Strain/Indicator: TA1535, Metabolic Activation: NONE, Method: STANDARD PLATE) “inactive; negative”; (Test System: AMES SALMONELLA TYPHIMURIUM, Strain/Indicator: TA1535, Metabolic Activation: RAT, LIVER, S-9, AROCLOR 1254, Method: STANDARD PLATE) “inactive; negative”; (Test System: AMES SALMONELLA TYPHIMURIUM, Strain/Indicator: TA1537, Metabolic Activation: HAMSTER, LIVER, S-9, AROCLOR 1254, Method: STANDARD PLATE) “inactive; negative”; (Test System: AMES SALMONELLA TYPHIMURIUM, Strain/Indicator: TA1537, Metabolic Activation: NONE, Method: STANDARD PLATE) “inactive; negative”; (Test System: AMES SALMONELLA TYPHIMURIUM, Strain/Indicator: TA1537, Metabolic Activation: RAT, LIVER, S-9, AROCLOR 1254, Method: STANDARD PLATE) “inactive; negative”. Moreover, the mutagenic call (Test System: AMES SALMONELLA TYPHIMURIUM, Strain/Indicator: TA1538, Metabolic Activation: HAMSTER, LIVER, S-9, AROCLOR 1254, Method: STANDARD PLATE) is “inactive; negative”; the mutagenic call (Test System: AMES SALMONELLA TYPHIMURIUM, Strain/Indicator: TA1538, Metabolic Activation: NONE, Method: STANDARD PLATE) is “inactive; negative”; the mutagenic call (Test System: AMES SALMONELLA TYPHIMURIUM, Strain/Indicator: TA1538, Metabolic Activation: RAT, LIVER, S-9, AROCLOR 1254, Method: STANDARD PLATE) is “inactive; negative”; the mutagenic call (Test System: Mouse lymphoma, Strain/Indicator: L5178Y (tk+/tk-), Metabolic Activation: None, Method: Suspension/plate) is “active; inconclusive (previously evaluated positive)”; the mutagenic call (Test System: Mouse lymphoma, Strain/Indicator: L5178Y (tk+/tk-), Metabolic Activation: Rat, liver, S-9, Aroclor 1254, Method: Suspension/plate) is “inactive; negative”.
